Results from article PMC6369240, “Biological evaluation and structure activity relationship of 9-methyl-1-phenyl-9H-pyrido[3,4-b]indole derivatives as anti-leishmanial agents” (Bioorganic Chemistry, 2019).

Key:
[1] = tested on: L. donovani LdBOB axenic amastigotes; experiment: L. donovani axenic amastigote assay (Alamar blue); assay type: cell-based, Leishmania donovani; details: for EC50: 72 h, Alamar blue; for S.I (CC50/IC50), L. donovani axenic amastigote: HeLa CC50 / L. donovani axenic amastigote EC50
Description: (§1) L. donovaniLdBOB axenic amastigotes or L. infantum JPCM5 MCAN/ES/98/LLM-87 were cultured at 37 °C in modified Eagle’s medium (HOMEM; L. infantum) and axenic amastigotes were incubated for 72 h with compounds, followed by Alamar blue-based assay as previously described.

[2] = tested on: L. donovani LdBOB intracellular amastigotes in PMA differentiated THP-1 cells; experiment: Intra macrophage L. donovani (amastigote) assay in THP-1 cells; assay type: cell-based, Leishmania donovani; details: for EC50: THP-1 macrophages, 72 h, microscopy readout; for S.I (CC50/IC50), L. donovani intracellular amastigote: HeLa CC50 / L. donovani intracellular amastigote EC50
Description: Although, axenic amastigotes assay most commonly used to screen new leishmanial agents are different from intracellular amastigotes in terms of protein expression and drug susceptibility. […] THP-1 (human monocytic leukemia) cells were a kind gift from Dr Susan Wylie (Dundee) and maintained in minimal essential medium plus 10% (vol/vol) FBS. […] Briefly, THP-1 cells (20,000 per well, 200 μL) were plated into 96 well plates in presence of 10 nM PMA and incubated at 37 °C in 5% CO2 atmosphere for 75 h. […] Any remaining extracellular amastigotes were removed and the adhered cells were washed with the same supplemented PBS solution as above. Pre-aliquoted compounds in a serial dilution were added from another plate, such that the total well volume was 200 μL and incubated for further 72 h. Cells were fixed with 100% methanol, stained with Giemsa and examined microscopically.

[3] = introduction statement; cited from earlier work
[4] = tested on: L. donovani promastigotes; experiment: L. donovani promastigote assay (Alamar blue); assay type: cell-based, Leishmania donovani; details: for EC50: Leishmania donovani, 72 h, Alamar blue; for S.I (CC50/IC50), L. donovani promastigote: HeLa CC50 / L. donovani promastigote EC50
Description: (§2) Anti-leishmanial activity of these analogues was determined by evaluating their inhibition activity against both promastigote, amastigote forms of Leishmania infantum and Leishmania donovani strains. […] Anti-leishmanial drugs miltefosine and pentamidine were used as standards for comparison purpose.
L. donovani promastigote inhibition potency of these reported β-carboline derivatives was determined by Alamar blue assay method.
(§3) L. donovanipromastigotes were cultured at 37 °C in M199 medium supplemented with 10% heat-inactivated fetal calf serum. L. infantum JPCM5 MCAN/ES/98/LLM-87 promastigotes were cultured at 26 °C in modified Eagle’s medium (HOMEM). Parasites were incubated with serial dilutions of compounds for 72 h, followed by Alamar blue-based assay as previously described.

[5] = tested on: L. infantum JPCM5 MCAN/ES/98/LLM-87 promastigotes; experiment: L. infantum promastigote assay (Alamar blue); assay type: cell-based, Leishmania infantum; details: for EC50: 72 h, Alamar blue; for S.I (CC50/IC50), L. infantum promastigote: HeLa CC50 / L. infantum promastigote EC50
Description: as §2
Anti-promastigote activity of these reported β-carboline derivatives was determined by Alamar blue assay method.
as §3

[6] = tested on: L. infantum JPCM5 MCAN/ES/98/LLM-87 axenic amastigotes; experiment: L. infantum axenic amastigote assay (Alamar blue); assay type: cell-based, Leishmania infantum; details: for EC50: Leishmania infantum, 72 h, Alamar blue; for S.I (CC50/IC50), L. infantum axenic amastigote: HeLa CC50 / L. infantum axenic amastigote EC50
Description: Alamar blue assay method was used to determine inhibition potential of these β-carboline derivatives against (human life stage forms) axenic amastigotes.
as §1

[7] = HeLa cell cytotoxicity, Alamar blue assay; assay type: cell-based; details: human; HeLa cells, ~65 h incubation plus 5 h Alamar Blue
Description: HeLa cell cytotoxicity studies were carried out as described previously. Briefly, the cells were cultured in DMEM supplemented with 10% fetal calf serum and 2 mM L-glutamine. Cells were plated at initial cell concentration of 2 × 10^4 cells/well and incubated with the compounds for ∼65 h prior to addition of Alamar Blue solution for further 5 h.

[8] = Leishmania donovani, THP-1, 72 h

SMILES | EC50 ([1]; Leishmania donovani) [µM] | EC50 [2, 8] [µM] | half-life [3] [h] | EC50 [4] [µM] | EC50 [5] [µM] | EC50 ([5]; Leishmania infantum) [µM] | EC50 [6] [µM] | S.I (CC50/IC50), L. donovani axenic amastigote [1] | S.I (CC50/IC50), L. donovani intracellular amastigote [2] | melting point [°C] | CC50 [7] [µM] | S.I (CC50/IC50), L. donovani promastigote [4] | S.I (CC50/IC50), L. infantum promastigote [5] | S.I (CC50/IC50), L. infantum axenic amastigote [6] | EC50 [1] [µM] | EC50 [2] [µM]
CCCCCCCCCCCCCCCCOP(=O)([O-])OCC[N+](C)(C)C [Miltefosine, reference compound] | 2.8 ± 0.4 | 6.4 ± 0.3 | 150 | 3.12 ± 0.16 | 12.6 ± 1.1 | 12.4 | 4.8 ± 0.8 |  |  |  |  |  |  |  |  | 
Cn1c2ccccc2c2cc(C(=O)N3CCN(c4ccc(F)cc4)CC3)nc(-c3ccccc3)c21 [7k, (4-(4-fluorophenyl)piperazin-1-yl)(9-methyl-1-phenyl-9H-pyrido[3,4-b]indol-3-yl)methanone] | 9.3 ± 0.5 | 10.1 ± 1.1 |  | 12.4 ± 1.4 |  | 17.2 ± 0.82 | 15 ± 1.3 | 53.8 | 49.5 | 188 to 190 | > 500 | >40.3 | >29.1 | >33.3 |  | 
COc1ccc(N2CCN(C(=O)c3cc4c5ccccc5n(C)c4c(-c4ccccc4)n3)CC2)cc1 [7d, (4-(4-methoxyphenyl)piperazin-1-yl)(9-methyl-1-phenyl-9H-pyrido[3,4-b]indol-3-yl)methanone] | 0.91 | 1.4 |  | 0.91 ± 0.09 |  |  | 1.4 ± 0.1 | 555.6 | 384.6 | 170 to 172 | > 500 | >549.5 | >314.5 | >357.1 | 0.9 ± 0.1 | 1.3 ± 0.1
COc1ccccc1N1CCN(C(=O)c2cc3c4ccccc4n(C)c3c(-c3ccccc3)n2)CC1 [7f, (4-(2-methoxyphenyl)piperazin-1-yl)(9-methyl-1-phenyl-9H-pyrido[3,4-b]indol-3-yl)methanone] | 6.4 ± 0.2 | 11.8 ± 0.7 |  | 8.42 ± 0.45 |  | 13.8 ± 0.9 | 15.3 ± 1.1 | 78.1 | 42.4 | 168 to 170 | > 500 | >59.4 | >36.2 | >32.7 |  | 
